Calls of active or inactive are those of the source. The rule behind the calls is not given here.
Tests used:
[1] = target: T1, Tyrosine-protein kinase SYK (Homo sapiens, UniProt P43405); assay: Inhibition of SYK (unknown origin) using ULight-TK peptide as substrate incubated for 120 mins in presence of ATP by Lance Ultra Kinase assay
[2] = target: T1, Tyrosine-protein kinase SYK; assay: Inhibition of SYK (unknown origin) using ULight-TK peptide as substrate at 1 uM incubated for 120 mins in presence of ATP by Lance Ultra Kinase assay relative to control
[3] = target: T2, Tyrosine-protein kinase ZAP-70 (Homo sapiens, UniProt P43403); assay: Inhibition of ZAP-70 (unknown origin) using ULight-TK peptide as substrate incubated for 120 mins in presence of ATP by Lance Ultra Kinase assay
T2 sequence (P43403 whole entry): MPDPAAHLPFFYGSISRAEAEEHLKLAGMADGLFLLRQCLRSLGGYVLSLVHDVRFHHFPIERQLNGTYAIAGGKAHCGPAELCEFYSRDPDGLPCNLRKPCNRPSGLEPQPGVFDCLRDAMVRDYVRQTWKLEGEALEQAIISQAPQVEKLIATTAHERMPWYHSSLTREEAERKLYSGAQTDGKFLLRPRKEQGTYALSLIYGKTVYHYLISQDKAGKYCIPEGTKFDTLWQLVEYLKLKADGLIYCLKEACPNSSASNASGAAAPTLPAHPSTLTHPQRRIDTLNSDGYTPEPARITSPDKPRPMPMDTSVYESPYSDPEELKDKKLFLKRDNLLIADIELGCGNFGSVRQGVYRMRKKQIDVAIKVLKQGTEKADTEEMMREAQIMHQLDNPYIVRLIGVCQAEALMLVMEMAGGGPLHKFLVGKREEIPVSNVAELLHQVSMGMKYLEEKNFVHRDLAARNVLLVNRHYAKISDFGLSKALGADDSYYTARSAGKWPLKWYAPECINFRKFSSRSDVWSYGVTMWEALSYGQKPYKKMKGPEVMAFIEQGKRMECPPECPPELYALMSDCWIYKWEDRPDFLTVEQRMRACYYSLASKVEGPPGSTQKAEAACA

[4] = system: Splenocyte; assay: Immunosuppressive activity in BALB/c mouse Splenocyte assessed as inhibition of concanavalin A induced T-cell proliferation incubated for 48 hrs by [3H]-thymidine incorporation based beta scintillation counter analysis; format: functional
[5] = GSH reactivity of compound at pH 7.4 PBS buffer assessed as half life incubated for 180 min by HPLC-MS analysis; format: physicochemical; settings: glutathione (GSH) in PBS buffer

Row | Compound | IC50 [1] [nM] | inhibition [2] [%] | IC50 [3] [nM] | half-life [5] [h] | Activity [4]
1 | C=CC(=O)Nc1cc(CNc2nc(Nc3ccc(N4CCOCC4)c(NC(C)=O)c3)c(C(N)=O)c3nccn23)ccc1Cl | – | 18.8 | – | – | –
2 | C=CC(=O)Nc1cc(CNc2nc(Nc3ccc(N4CCCN(C)CC4)c(OC)c3)c(C(N)=O)c3nccn23)ccc1Cl | 1280 | 71.2 | – | – | Active
3 | C=CC(=O)Nc1cc(CNc2nc(Nc3ccc(N4CCN(C5COC5)CC4)c(OC)c3)c(C(N)=O)c3nccn23)ccc1Cl | 598 | 87.5 | – | – | Active
4 | C=CC(=O)Nc1cc(CNc2nc(Nc3ccc(N4CCOCC4)c(OC(C)C)c3)c(C(N)=O)c3nccn23)ccc1Cl | – | 27.6 | – | – | –
5 | C=CC(=O)Nc1cc(CNc2nc(Nc3ccc(N4CCOCC4)c(OCC)c3)c(C(N)=O)c3nccn23)ccc1Cl | 641 | 82 | – | – | Active
6 | C=CC(=O)Nc1cc(CNc2nc(Nc3ccc(N4CCOCC4)c(CO)c3)c(C(N)=O)c3nccn23)ccc1Cl | 4280 | 40.2 | – | – | –
7 | C=CC(=O)Nc1cc(CNc2nc(Nc3ccc(N4CCN(C)CC4)c(OC)c3)c(C(N)=O)c3nccn23)ccc1Cl | 532 | 84 | – | – | Active
8 | C=CC(=O)Nc1cc(CNc2nc(Nc3ccc(N4CCOCC4)cc3)c(C(N)=O)c3nccn23)ccc1Cl | 5530 | 61.4 | – | – | –
9 | C=CC(=O)Nc1cc(CNc2nc(Nc3cc(OC)cc(N4CCOCC4)c3)c(C(N)=O)c3nccn23)ccc1Cl | – | 17.7 | – | – | –
10 | C=CC(=O)Nc1cc(CNc2nc(Nc3ccc(N4CCC(O)CC4)c(OC)c3)c(C(N)=O)c3nccn23)ccc1Cl | 1290 | 47.1 | – | – | Active
11 | C=CC(=O)Nc1cc(CNc2nc(Nc3ccc(N4CCOCC4)cc3OC)c(C(N)=O)c3nccn23)ccc1Cl | – | 3.2 | – | – | –
12 | C=CC(=O)Nc1ccc2c(c1)CN(c1nc(Nc3cc(OC)cc(OC)c3)c(C(N)=O)c3nccn13)CC2 | – | 22.3 | – | – | –

Continued, in another order:

Row | IC50 [1] [nM] | inhibition [2] [%] | IC50 [3] [nM] | half-life [5] [h] | Compound | Activity [4]
13 | > 10000 | 20.7 | 44.8 | – | COc1cc(Nc2nc(NCc3cccc(NC(=O)CCl)c3)n3ccnc3c2C(N)=O)cc(OC)c1 | Active
14 | – | 7 | – | 0.383 | C=CC(=O)Nc1cc(CNc2nc(Nc3cc(OC)cc(OC)c3)c(C(N)=O)c3nccn23)ccn1 | –
15 | – | -5.9 | – | – | C=CC(=O)Nc1cccc(CN(C)c2nc(Nc3cc(OC)cc(OC)c3)c(C(N)=O)c3nccn23)c1 | –
16 | – | 0.5 | – | – | C=CC(=O)Nc1cc(CNc2nc(Nc3cc(OC)cc(OC)c3)c(C(N)=O)c3nccn23)ccc1C(F)(F)F | –
17 | 7000 | 44.7 | – | – | C=CC(=O)Nc1cccc(CNc2nc(Nc3cc(OC)cc(OC)c3)c(C(N)=O)c3nccn23)c1F | –
18 | > 10000 | 17.5 | – | 1.35 | C=CC(=O)Nc1cc(CNc2nc(Nc3cc(OC)cc(OC)c3)c(C(N)=O)c3nccn23)ccc1Cl | –
19 | – | 6.8 | – | – | C=CC(=O)Nc1ccc(Cl)c(CNc2nc(Nc3cc(OC)cc(OC)c3)c(C(N)=O)c3nccn23)c1 | –
20 | – | 10.1 | – | – | C=CC(=O)Nc1cccc(C(C)Nc2nc(Nc3cc(OC)cc(OC)c3)c(C(N)=O)c3nccn23)c1 (stereo unspecified) | –
21 | – | 13.2 | – | – | C=CC(=O)Nc1cccc(CNc2nc(Nc3cc(OC)cc(OC)c3)c(C(N)=O)c3nccn23)c1Cl | –
22 | – | 15.4 | – | 4.23 | C=CC(=O)Nc1cccc(CNc2nc(Nc3cc(OC)cc(OC)c3)c(C(N)=O)c3nccn23)c1 | –
23 | – | 0.8 | – | – | C=CC(=O)Nc1cc(F)cc(CNc2nc(Nc3cc(OC)cc(OC)c3)c(C(N)=O)c3nccn23)c1 | –
24 | > 10000 | 19.8 | – | 1.07 | C=CC(=O)Nc1cc(CNc2nc(Nc3cc(OC)cc(OC)c3)c(C(N)=O)c3nccn23)ccc1F | –
25 | – | 10.9 | – | – | C=CC(=O)N1CCCc2c(CNc3nc(Nc4cc(OC)cc(OC)c4)c(C(N)=O)c4nccn34)cccc21 | –
26 | – | 8.2 | – | – | C=CC(=O)Nc1cc(Cl)cc(CNc2nc(Nc3cc(OC)cc(OC)c3)c(C(N)=O)c3nccn23)c1 | –
27 | – | 15.1 | – | – | C=CC(=O)Nc1cc(CNc2nc(Nc3cc(OC)cc(OC)c3)c(C(N)=O)c3nccn23)ccc1C | –
28 | – | 9 | – | – | C=CC(=O)Nc1cc(CNc2nc(Nc3cc(OC)cc(OC)c3)c(C(N)=O)c3nccn23)ccc1O | –
29 | – | 6.2 | – | – | C=CC(=O)Nc1ccc(F)c(CNc2nc(Nc3cc(OC)cc(OC)c3)c(C(N)=O)c3nccn23)c1 | –

From ChEMBL document CHEMBL5365427, “Discovery and Structural Optimization of Covalent ZAP-70 Kinase Inhibitors against Psoriasis” (J Med Chem, 2023)
